Results published in ChEMBL document CHEMBL4706768, “Discovery of Potent, Selective Triazolothiadiazole-Containing c-Met Inhibitors” (ACS Med Chem Lett, 2021).

Legend:
[1] = target: Serine/threonine-protein kinase Nek2 (Homo sapiens) (UniProt P51955); assay: Inhibition of recombinant human N-terminal His6-tagged NEK2 expressed in baculovirus infected Sf21 insect cells at 2 uM using MBP as substrate relative to control
[2] = target: MAP kinase-activated protein kinase 5 (Homo sapiens) (UniProt Q8IW41); assay: Inhibition of recombinant human N-terminal His6-tagged full-length PRAK expressed in baculovirus infected Sf21 insect cells at 2 uM using PRAK substrate peptide relative to control
MAP kinase-activated protein kinase 5 (Homo sapiens), sequence (Q8IW41 whole entry): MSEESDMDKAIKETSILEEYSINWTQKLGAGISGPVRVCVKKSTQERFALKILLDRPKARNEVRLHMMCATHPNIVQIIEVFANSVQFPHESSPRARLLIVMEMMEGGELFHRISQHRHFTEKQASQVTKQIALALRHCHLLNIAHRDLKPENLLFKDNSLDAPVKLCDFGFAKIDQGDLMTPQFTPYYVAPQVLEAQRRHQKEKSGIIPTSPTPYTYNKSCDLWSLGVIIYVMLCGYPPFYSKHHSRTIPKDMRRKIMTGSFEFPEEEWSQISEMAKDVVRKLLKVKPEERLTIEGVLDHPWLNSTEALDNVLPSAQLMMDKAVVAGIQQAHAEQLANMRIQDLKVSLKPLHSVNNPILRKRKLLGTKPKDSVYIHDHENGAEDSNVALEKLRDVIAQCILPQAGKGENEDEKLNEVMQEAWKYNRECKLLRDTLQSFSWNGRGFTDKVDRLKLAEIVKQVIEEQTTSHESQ

[3] = target: Protein kinase C beta type (Homo sapiens) (UniProt P05771); assay: Inhibition of recombinant human N-terminal His6-tagged PKCbeta2 (2 to end residues) expressed in Sf21 insect cells at 2 uM using Histone H1 as substrate relative to control
Protein kinase C beta type (Homo sapiens), sequence (P05771 2-671 limits assumed): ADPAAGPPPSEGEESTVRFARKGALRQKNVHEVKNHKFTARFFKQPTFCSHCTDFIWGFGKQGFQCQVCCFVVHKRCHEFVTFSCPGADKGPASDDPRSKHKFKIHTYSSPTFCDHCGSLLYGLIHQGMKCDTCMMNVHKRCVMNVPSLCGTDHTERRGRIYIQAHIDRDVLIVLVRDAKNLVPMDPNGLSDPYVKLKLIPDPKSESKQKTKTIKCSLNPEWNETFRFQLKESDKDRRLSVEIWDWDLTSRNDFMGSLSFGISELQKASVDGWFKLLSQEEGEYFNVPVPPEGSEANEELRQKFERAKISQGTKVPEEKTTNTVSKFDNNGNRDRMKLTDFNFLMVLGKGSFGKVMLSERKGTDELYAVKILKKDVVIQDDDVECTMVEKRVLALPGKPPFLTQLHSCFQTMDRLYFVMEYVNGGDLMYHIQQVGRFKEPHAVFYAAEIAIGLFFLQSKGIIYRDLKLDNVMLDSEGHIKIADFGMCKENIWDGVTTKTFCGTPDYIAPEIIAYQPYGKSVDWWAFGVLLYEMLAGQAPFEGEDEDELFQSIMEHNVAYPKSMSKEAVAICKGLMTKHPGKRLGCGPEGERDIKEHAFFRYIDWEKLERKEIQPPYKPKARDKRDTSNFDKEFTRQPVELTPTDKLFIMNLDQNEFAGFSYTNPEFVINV

Measured: inhibition

Serine/threonine-protein kinase Nek2 (Homo sapiens), sequence (P51955 whole entry): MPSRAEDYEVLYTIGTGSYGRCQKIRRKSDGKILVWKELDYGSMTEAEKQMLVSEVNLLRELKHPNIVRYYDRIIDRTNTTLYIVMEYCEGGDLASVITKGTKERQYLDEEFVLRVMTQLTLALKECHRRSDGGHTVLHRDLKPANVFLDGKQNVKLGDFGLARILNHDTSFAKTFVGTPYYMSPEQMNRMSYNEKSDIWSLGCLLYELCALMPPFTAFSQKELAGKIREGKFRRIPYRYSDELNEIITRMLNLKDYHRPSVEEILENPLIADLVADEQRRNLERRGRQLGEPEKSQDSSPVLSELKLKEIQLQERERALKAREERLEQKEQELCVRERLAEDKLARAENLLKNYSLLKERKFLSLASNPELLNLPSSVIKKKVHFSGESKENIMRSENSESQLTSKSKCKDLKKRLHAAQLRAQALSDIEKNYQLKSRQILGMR

C[C@@H](c1ccc2ncccc2c1)c1nnc2sc(-c3cnn(C)c3)nn12
< 50%: all assays above
